Results from US20090312385A1, “CANNABINOID RECEPTOR MODULATORS FOR TREATING NON-IMMEDIATE TYPE ALLERGIC DISEASES” (Glenmark Pharmaceuticals, S.A., priority 2007, published 2009).

Test system: TDI-induced dermatitis in BALB/c mice
Assay: toluene-2,4-diisocyanate (TDI) induced dermatitis model, topical treatment of the ear
Format: in vivo, female BALB/c mice
Conditions: for inhibition of various parameters: standard reference compounds, dose not stated
Procedure: The sensitization protocol was as per W. Baumer et al., J Pharm Pharmacol., 55(8):1107-14 (2003). The abdominal region was shaved and depilated using Veet. Subsequently, the horny layers were stripped 10 times with adhesive tape. For active sensitization, 100 μl of 5% TDI was applied to the stripped skin for 3 consecutive days.
Prescreening was performed 21 days later. In brief, the sensitized mice were challenged with an application of 10 μl of 0.5% TDI on both the inner and outer surface of the left ear, the right ear served as control in each mouse. Ear thickness was measured with a cutimeter (Model7309, Mitutoyo Japan) prior to challenge and 24 hours after challenge. […] Animals were rested for 7 days after prescreening, to allow for the ear thickness to return to normal.
Five groups (A-E) were studied.
On day 28, test compounds. GRC-CPD-A (0.3, 3 and 10%) were prepared using DMSO and acetone in the ratio of 1:9 as solvents. 20 μl (10 μl on each side of the ear) of the formulation was applied to the left ear of each mouse as per the study design 6 hours prior to challenge with TDI. 20 μl of TDI was applied to both inner and outer surface of the left ear of each mouse. The right ear served as control and received an application of 10 μl of acetone on each side. 24 hours post TDI challenge ear thickness was determined and ears were collected for histology and eosinophil peroxidase (EPO) determination. Ear sections were processed for histology and stained with hematoxylin-eosin (HE) and lesions were scored as follows: 0=no cell infiltration or edema, 1-4-granulocyte infiltration/oedema depending on severity. A combined congo-red-toluidine blue staining was also carried out to identify eosinophils which were then quantified per 12 high power fields (hpf). EPO levels in ear sections were determined by standard […] assay using […] as substrate.
All data were expressed as mean±SEM. All groups were subjected to one-way ANOVA and means were compared using Dunnett's post hoc test using GraphPad prism software.

[1] = conclusion, in a dose dependent manner (0.3, 3 and 10% topical)

SMILES	inhibition of various parameters	EPO levels [1]	ear swelling (oedema and eosinophil infiltration) [1]	inhibition of ear swelling (topical application of 10%, 6 hours prior to TDI challenge, ear thickness 24 hours post TDI challenge, FIG. 1)	histological scores (topical application of 10%, HE-stained ear sections, lesion score 0-4, 24 hours post TDI challenge, FIG. 2)	EPO levels in the ear (topical application of 10%, eosinophil peroxidase in ear sections, 24 hours post TDI challenge, FIG. 4)	eosinophil infiltration (topical application of 10%, eosinophils per 12 hpf in ear sections, 24 hours post TDI challenge, FIG. 3)
C=CC[C@@H]1/C=C(\C)C[C@H](C)C[C@H](OC)[C@H]2O[C@@](O)(C(=O)C(=O)N3CCCC[C@H]3C(=O)O[C@H](/C(C)=C/[C@@H]3CC[C@@H](O)[C@H](OC)C3)[C@H](C)[C@@H](O)CC1=O)[C@H](C)C[C@@H]2OC [tacrolimus, reference compound]	significant inhibition						
CC(C)(C)NC(=O)c1nn(-c2ccc(F)cc2F)c2c1[C@H]1CC[C@@H]2C1 [GRC-CPD-A, (1R,7S)—N5-(tert-butyl)-3-(2,4-difluorophenyl)-3,4-diazatricylco[5.2.1.0^2,6]deca-2(6),4-diene-5-carboxamide]		effectively inhibits	effectively inhibits	significant (p<0.001) dose-dependent inhibition	improved	inhibited	inhibited
C[C@]12CCC(=O)C=C1CC[C@@H]1[C@@H]2[C@@H](O)C[C@@]2(C)[C@H]1CC[C@]2(O)C(=O)CO [hydrocortisone, reference compound]	significant inhibition						
